One block for each compound: values may come before it. Non-standard residues stand in square brackets, D forms with d. Residues, ends and D or L forms follow the SMILES beside them. *: point of attachment. Lys(Me,2-norbornyl) = CN(CCCC[C@H](N)C(=O)O)C1CC2CCC1C2; Benzoyl(4-tBu) = CC(C)(C)c1ccc(C(=O)*)cc1; Boc = CC(C)(C)OC(=O)*; CH2Cl = ClC*
Key:
[1] = molecular target: T1, Histone-lysine N-methyltransferase EZH1 (Homo sapiens, UniProt Q92800); test: Affinity Biochemical interaction: (inhibition of EZH1 for both SAM and peptide substrates using a Flashplate assay to measure the transfer of a tritiated methyl group from SAM to the peptide) EUB0002228a EZH1; assay type: functional; design: mode of action Inhibitor, recommended concentration 1 uM
[2] = molecular target: T1, Histone-lysine N-methyltransferase EZH1; test: Affinity Biochemical interaction: (ELISA-based protein substrate methylation assay) EUB0002228a EZH1; assay type: functional; design: mode of action Inhibitor, recommended concentration 1 uM
[3] = molecular target: T2, Caspase-8 (Homo sapiens, UniProt Q14790); test: Affinity Biochemical interaction: (enzymatic assay (fluorogenic substrate cleavage)) EUB0002190aAD CASP8; assay type: functional; design: mode of action Inhibitor, recommended concentration 1 uM
[4] = molecular target: T3, Caspase-9 (Homo sapiens, UniProt P55211); test: Affinity Biochemical interaction: (enzymatic assay (fluorogenic substrate cleavage)) EUB0002190aAD CASP9; assay type: functional; design: mode of action Inhibitor, recommended concentration 1 uM
[5] = molecular target: T4, Caspase-1 (Homo sapiens, UniProt P29466); test: Affinity Biochemical interaction: (enzymatic assay (fluorogenic substrate cleavage)) EUB0002190aAD CASP1; assay type: functional; design: mode of action Inhibitor, recommended concentration 1 uM
[6] = molecular target: T5, Caspase-3 (Homo sapiens, UniProt P42574); test: Affinity Biochemical interaction: (enzymatic assay (fluorogenic substrate cleavage)) EUB0002190aAD CASP3; assay type: functional; design: mode of action Inhibitor, recommended concentration 1 uM
T5 sequence (P42574 whole entry): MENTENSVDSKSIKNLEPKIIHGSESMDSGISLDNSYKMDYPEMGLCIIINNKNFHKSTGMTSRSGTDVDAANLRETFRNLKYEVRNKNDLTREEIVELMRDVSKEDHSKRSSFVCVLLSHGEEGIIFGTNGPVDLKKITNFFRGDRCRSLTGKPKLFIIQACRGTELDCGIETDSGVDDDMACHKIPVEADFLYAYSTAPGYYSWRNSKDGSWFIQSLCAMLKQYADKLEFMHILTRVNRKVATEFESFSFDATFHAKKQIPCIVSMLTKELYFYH

[7] = molecular target: Caspase-6 (Homo sapiens, UniProt P55212); test: Affinity Biochemical interaction: (enzymatic assay (fluorogenic substrate cleavage)) EUB0002190aAD CASP6; assay type: functional; design: mode of action Inhibitor, recommended concentration 1 uM
[8] = molecular target: Histone-lysine N-methyltransferase SMYD3 (Homo sapiens, UniProt Q9H7B4); test: Affinity Biochemical interaction: (inhibition of methylation activity, scintillation proximity assay utilizing [3 H]-SAM with specific product capture of biotin-tagged peptides on streptavidin SPA beads) EUB0002243aAD SMYD3; assay type: functional; design: mode of action Inhibitor, recommended concentration 1 uM
[9] = molecular target: T6, Chromobox protein homolog 7 (Homo sapiens, UniProt O95931); test: Affinity Biochemical interaction: (ITC) EUB0001090a CBX7; design: mode of action Inhibitor, recommended concentration 1 uM
T6 sequence (O95931 whole entry): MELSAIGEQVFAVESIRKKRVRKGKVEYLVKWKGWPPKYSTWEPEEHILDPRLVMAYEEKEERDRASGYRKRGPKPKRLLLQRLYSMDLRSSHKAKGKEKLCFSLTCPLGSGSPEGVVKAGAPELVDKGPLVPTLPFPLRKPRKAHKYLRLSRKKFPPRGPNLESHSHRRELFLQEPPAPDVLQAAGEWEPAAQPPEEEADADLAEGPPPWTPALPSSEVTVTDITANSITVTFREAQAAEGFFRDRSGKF

[10] = molecular target: T6, Chromobox protein homolog 7; test: Affinity Biochemical interaction: (SPR) EUB0001090a CBX7; design: mode of action Inhibitor, recommended concentration 1 uM
[11] = molecular target: T6, Chromobox protein homolog 7; test: Affinity Biochemical interaction: (AlphaScreen) EUB0001090a CBX7; assay type: functional; design: mode of action Inhibitor, recommended concentration 1 uM
[12] = molecular target: T3, Caspase-9; test: Affinity Biochemical interaction: (peptide substrate detection probe bound to magnetic beads, detection of liberated fluorophores) EUB0002203aAD CASP9; assay type: functional; design: mode of action Inhibitor, recommended concentration 1 uM
[13] = molecular target: Histone deacetylase 3 (Homo sapiens, UniProt O15379)
[14] = molecular target: Caspase-7 (Homo sapiens, UniProt P55210); test: Affinity Biochemical interaction: (enzymatic assay (fluorogenic substrate cleavage)) EUB0002173aAD CASP7; assay type: functional; design: mode of action Inhibitor, recommended concentration 1 uM
[15] = molecular target: T2, Caspase-8; test: Affinity Biochemical interaction: (enzymatic assay (fluorogenic substrate cleavage)) EUB0002173aAD CASP8; assay type: functional; design: mode of action Inhibitor, recommended concentration 1 uM
[16] = molecular target: Caspase-10 (Homo sapiens, UniProt Q92851); test: Affinity Biochemical interaction: (enzymatic assay (fluorogenic substrate cleavage)) EUB0002173aAD CASP10; assay type: functional; design: mode of action Inhibitor, recommended concentration 1 uM
[17] = molecular target: Monocarboxylate transporter 1 (Homo sapiens, UniProt P53985); test: Affinity Biochemical interaction: (Displacement of radiolabelled [3H]-BAY-8002) EUB0001677b SLC16A1; design: mode of action Inhibitor, recommended concentration 1 uM
[18] = molecular target: T4, Caspase-1; test: Affinity Biochemical interaction: (enzymatic assay (fluorogenic substrate cleavage)) EUB0002198aAD CASP1; assay type: functional; design: mode of action Inhibitor, recommended concentration 1 uM
[19] = molecular target: T2, Caspase-8; test: Affinity Biochemical interaction: (enzymatic assay (fluorogenic substrate cleavage)) EUB0002198aAD CASP8; assay type: functional; design: mode of action Inhibitor, recommended concentration 1 uM
[20] = molecular target: Diacylglycerol lipase-beta (Homo sapiens) (UniProt Q8NCG7); test: Affinity Biochemical interaction: (Gel-based competitive ABPP) EUB0002547a DAGLB; assay type: functional; design: recommended concentration 1 uM; conditions: Affinity Biochemical Source Knowledge https://pubs.acs.org/doi/epdf/10.1021/jm400898x
[21] = molecular target: Protein arginine N-methyltransferase 8 (Homo sapiens, UniProt Q9NR22); test: Affinity Biochemical interaction: (enzymatic assay (inhibition of methyl transfer from radiolabelled substrate [3H]SAM to peptide)) EUB0002245aCl PRMT8; assay type: functional; design: mode of action Inhibitor, recommended concentration 1 uM
[22] = molecular target: Protein arginine N-methyltransferase 6 (Homo sapiens, UniProt Q96LA8); test: Affinity Biochemical interaction: (enzymatic assay (inhibition of methyl transfer from radiolabelled substrate [3H]SAM to peptide)) EUB0002245aCl PRMT6; assay type: functional; design: mode of action Inhibitor, recommended concentration 1 uM
[23] = molecular target: Histone-arginine methyltransferase CARM1 (Homo sapiens, UniProt Q86X55); test: Affinity Biochemical interaction: (enzymatic assay (inhibition of methyl transfer from radiolabelled substrate [3H]SAM to peptide)) EUB0002245aCl CARM1; assay type: functional; design: mode of action Inhibitor, recommended concentration 1 uM
[24] = molecular target: T2, Caspase-8; test: Affinity Biochemical interaction: (enzymatic assay (fluorogenic substrate cleavage)) EUB0002177aAD CASP8; assay type: functional; design: mode of action Inhibitor, recommended concentration 1 uM

T2 sequence (Q14790 217-374 limits assumed): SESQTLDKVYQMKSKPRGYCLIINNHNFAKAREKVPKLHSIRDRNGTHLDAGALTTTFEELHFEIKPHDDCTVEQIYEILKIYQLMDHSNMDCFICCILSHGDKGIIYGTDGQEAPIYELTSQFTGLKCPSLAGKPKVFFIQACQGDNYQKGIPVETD
T2 sequence (Q14790 385-479 limits assumed): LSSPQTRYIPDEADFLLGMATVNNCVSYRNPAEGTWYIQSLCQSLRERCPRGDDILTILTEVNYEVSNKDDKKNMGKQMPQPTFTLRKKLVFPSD
Sequence of Monocarboxylate transporter 1 (P53985 whole entry): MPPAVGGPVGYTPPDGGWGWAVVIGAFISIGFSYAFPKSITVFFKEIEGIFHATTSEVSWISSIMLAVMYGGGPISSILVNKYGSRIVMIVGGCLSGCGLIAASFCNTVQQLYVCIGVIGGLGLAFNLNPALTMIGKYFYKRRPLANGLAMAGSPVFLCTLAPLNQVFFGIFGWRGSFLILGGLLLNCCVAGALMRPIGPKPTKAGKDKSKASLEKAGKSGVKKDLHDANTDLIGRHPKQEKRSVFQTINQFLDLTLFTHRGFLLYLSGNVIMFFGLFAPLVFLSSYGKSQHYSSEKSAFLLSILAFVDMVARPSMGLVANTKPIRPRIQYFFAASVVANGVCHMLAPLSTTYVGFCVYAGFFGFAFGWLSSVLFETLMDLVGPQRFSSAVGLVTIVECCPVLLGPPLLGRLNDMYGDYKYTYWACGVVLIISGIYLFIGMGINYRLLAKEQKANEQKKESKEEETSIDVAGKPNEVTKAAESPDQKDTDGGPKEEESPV
Sequence of Histone-lysine N-methyltransferase SMYD3 (Q9H7B4 whole entry): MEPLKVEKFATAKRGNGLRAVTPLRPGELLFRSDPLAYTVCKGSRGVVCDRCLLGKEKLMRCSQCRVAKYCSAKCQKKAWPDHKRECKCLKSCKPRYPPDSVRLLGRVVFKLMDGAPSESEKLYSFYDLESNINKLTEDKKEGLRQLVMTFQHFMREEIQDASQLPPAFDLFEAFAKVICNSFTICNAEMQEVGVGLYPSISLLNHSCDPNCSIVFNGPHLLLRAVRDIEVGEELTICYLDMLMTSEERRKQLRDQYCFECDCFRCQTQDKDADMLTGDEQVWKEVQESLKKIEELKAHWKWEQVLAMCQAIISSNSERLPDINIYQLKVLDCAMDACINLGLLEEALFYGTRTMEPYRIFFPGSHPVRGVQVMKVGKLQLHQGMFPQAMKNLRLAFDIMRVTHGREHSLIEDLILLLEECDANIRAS
T3 sequence (P55211 1-315 limits assumed): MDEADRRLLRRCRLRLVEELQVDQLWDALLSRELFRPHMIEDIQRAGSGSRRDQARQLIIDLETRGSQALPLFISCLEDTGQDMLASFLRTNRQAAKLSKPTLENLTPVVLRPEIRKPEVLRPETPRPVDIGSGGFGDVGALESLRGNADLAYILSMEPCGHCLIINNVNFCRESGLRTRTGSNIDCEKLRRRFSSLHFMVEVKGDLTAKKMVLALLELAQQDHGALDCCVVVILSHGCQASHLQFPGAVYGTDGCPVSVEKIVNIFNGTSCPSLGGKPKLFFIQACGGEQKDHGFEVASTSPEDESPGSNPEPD
T3 sequence (P55211 331-416 limits assumed): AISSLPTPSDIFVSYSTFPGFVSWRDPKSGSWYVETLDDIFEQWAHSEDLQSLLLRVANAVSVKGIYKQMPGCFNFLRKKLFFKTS
T4 sequence (P29466 120-297 limits assumed): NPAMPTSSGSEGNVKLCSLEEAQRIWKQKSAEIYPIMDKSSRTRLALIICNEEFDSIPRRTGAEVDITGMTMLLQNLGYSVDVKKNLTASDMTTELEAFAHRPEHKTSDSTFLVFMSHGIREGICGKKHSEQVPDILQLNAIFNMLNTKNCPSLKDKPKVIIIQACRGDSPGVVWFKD
T4 sequence (P29466 317-404 limits assumed): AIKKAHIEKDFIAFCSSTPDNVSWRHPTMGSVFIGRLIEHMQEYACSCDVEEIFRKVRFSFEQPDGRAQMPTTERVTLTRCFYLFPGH
Sequence of Protein arginine N-methyltransferase 8 (Q9NR22 whole entry): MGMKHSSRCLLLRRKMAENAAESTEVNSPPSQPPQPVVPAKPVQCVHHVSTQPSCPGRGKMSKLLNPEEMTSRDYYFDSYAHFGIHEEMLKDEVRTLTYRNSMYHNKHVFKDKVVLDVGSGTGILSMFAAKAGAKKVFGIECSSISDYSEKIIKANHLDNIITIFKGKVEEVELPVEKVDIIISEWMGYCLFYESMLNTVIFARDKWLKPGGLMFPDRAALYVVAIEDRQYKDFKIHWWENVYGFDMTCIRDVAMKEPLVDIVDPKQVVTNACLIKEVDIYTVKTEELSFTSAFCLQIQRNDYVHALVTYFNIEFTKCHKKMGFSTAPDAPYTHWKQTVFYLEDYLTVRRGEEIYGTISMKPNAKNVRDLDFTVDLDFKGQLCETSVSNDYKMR
T1 sequence (Q92800 whole entry): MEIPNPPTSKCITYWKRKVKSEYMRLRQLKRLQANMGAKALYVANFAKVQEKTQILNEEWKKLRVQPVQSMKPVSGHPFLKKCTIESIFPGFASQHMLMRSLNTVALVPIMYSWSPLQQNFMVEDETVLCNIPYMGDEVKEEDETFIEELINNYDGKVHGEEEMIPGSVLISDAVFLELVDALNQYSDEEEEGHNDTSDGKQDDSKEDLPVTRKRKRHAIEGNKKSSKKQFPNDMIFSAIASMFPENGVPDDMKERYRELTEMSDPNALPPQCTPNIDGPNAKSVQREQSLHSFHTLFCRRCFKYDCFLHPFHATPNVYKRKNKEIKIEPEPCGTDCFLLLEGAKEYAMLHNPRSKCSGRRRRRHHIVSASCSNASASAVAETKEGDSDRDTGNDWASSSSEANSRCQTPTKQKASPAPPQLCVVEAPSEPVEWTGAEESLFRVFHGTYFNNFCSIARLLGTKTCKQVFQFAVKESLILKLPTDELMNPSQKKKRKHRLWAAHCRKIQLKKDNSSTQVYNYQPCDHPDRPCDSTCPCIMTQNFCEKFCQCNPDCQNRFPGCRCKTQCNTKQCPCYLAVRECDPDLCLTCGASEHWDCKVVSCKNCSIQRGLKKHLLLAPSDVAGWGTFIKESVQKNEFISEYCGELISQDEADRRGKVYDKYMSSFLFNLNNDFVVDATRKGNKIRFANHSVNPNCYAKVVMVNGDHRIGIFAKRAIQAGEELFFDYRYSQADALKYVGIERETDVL
Sequence of Histone-arginine methyltransferase CARM1 (Q86X55 whole entry): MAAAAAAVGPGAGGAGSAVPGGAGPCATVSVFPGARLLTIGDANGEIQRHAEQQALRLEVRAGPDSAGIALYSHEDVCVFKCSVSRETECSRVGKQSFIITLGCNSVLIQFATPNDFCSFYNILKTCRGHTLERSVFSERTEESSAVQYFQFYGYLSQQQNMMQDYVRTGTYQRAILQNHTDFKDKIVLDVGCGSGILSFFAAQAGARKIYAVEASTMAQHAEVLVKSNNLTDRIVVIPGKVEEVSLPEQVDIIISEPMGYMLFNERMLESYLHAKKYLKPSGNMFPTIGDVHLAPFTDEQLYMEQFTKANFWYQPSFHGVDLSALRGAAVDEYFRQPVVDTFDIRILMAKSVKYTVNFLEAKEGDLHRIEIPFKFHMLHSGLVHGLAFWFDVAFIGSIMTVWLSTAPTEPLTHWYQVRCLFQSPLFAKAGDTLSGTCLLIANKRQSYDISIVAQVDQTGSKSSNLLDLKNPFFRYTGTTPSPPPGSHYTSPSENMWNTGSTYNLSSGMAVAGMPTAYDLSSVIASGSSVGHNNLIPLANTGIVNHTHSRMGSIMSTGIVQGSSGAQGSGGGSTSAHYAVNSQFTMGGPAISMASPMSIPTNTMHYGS
Sequence of Protein arginine N-methyltransferase 6 (Q96LA8 whole entry): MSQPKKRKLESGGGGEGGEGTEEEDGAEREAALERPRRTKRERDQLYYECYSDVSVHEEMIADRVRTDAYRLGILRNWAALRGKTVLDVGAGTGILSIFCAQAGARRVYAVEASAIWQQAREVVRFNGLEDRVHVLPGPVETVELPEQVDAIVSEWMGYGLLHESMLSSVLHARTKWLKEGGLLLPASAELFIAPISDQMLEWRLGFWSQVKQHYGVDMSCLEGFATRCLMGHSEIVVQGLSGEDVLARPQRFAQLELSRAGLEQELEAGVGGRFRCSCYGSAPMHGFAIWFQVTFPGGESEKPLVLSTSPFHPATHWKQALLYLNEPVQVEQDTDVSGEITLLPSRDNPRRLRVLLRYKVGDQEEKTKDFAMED
Sequence of Diacylglycerol lipase-beta (Homo sapiens) (Q8NCG7 whole entry): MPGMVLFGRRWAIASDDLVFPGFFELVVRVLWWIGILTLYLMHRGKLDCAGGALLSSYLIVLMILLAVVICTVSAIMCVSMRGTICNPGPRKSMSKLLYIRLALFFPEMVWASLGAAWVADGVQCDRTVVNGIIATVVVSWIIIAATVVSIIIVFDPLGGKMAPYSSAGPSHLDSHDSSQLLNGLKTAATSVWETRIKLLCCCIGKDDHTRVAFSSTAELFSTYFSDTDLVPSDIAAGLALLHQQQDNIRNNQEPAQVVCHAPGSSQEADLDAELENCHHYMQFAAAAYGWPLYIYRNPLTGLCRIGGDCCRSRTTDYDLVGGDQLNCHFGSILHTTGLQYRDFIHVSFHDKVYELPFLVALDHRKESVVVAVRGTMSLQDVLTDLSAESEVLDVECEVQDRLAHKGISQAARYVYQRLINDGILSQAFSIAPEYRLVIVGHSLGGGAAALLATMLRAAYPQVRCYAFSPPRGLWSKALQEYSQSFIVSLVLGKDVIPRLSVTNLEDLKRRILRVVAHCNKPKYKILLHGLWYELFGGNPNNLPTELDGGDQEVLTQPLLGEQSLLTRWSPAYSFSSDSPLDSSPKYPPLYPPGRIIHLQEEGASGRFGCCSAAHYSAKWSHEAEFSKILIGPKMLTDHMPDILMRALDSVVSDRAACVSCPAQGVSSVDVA

Structure (SMILES): CC(C)[C@H](NC(=O)[C@H](CCC(=O)O)NC(=O)[C@H](C)NC(=O)OC(C)(C)C)C(=O)N[C@H](C=O)CC(=O)O (Boc-AEVD-aldehyde)
Ki [3]: 1.6 nM
Ki [4]: 48 nM
Ki [5]: < 12 nM
Ki [6]: 42 nM
Ki [7]: 52 nM

Structure (SMILES): CN(C)CCCN(CC[C@H](N)C(=O)O)C[C@H]1O[C@@H](n2cnc3c(N)ncnc32)[C@H](O)[C@@H]1O
IC50 [8]: 130 nM
Ki [8]: 14 nM

Structure (SMILES): CN(C)Cc1ccc(S(=O)(=O)n2ccc(/C=C/C(=O)NO)c2)cc1
IC50 [13]: 50.1 nM

Structure (SMILES): CC(=O)N[C@@H](CC(=O)O)C(=O)N[C@@H](CCC(=O)O)C(=O)N[C@H](C(=O)N[C@H](C=O)CC(=O)O)C(C)C
Ki [14]: 1.6 nM
Ki [15]: 0.92 nM
Ki [16]: 12 nM

Structure (SMILES): O=C(Nc1ccccc1C(=O)O)c1cc(S(=O)(=O)c2ccccc2)ccc1Cl
IC50 [17]: 11 nM
Ki [17]: 5.02 nM

Structure (SMILES): CC(=O)N[C@@H](CC(C)C)C(=O)N[C@@H](CCC(=O)O)C(=O)N[C@@H](Cc1cnc[nH]1)C(=O)N[C@H](C=O)CC(=O)O (Ac-LEHD-aldehyde)
IC50 [18]: 15 nM
IC50 [19]: 3.82 nM

Structure (SMILES): CCOCC1(COCC)CCC(c2n[nH]cc2CN(C)CCNC)CC1
IC50 [21]: 3.9 nM
Ki [21]: 2 nM
IC50 [22]: 4.7 nM
Ki [22]: 2.4 nM
IC50 [23]: 38 nM
Ki [23]: 19 nM

Other lines, results leading:

Ki [1]: 45 nM
IC50 [2]: 103 nM
Structure (SMILES): CCN(c1cc(C#CCN2CCOCC2)cc(C(=O)NCc2c(C)cc(C)[nH]c2=O)c1C)[C@H]1CC[C@H](N(C)CCOC)CC1

Kd [9]: 59 nM
Kd [10]: 53.8 nM
IC50 [11]: 20 nM
Structure (SMILES): COC(=O)[C@H](CO)NC(=O)[C@H](CCCCN(C)C1CC2CCC1C2)NC(=O)[C@H](CC(C)C)NC(=O)[C@H](C)NC(=O)[C@H](Cc1ccccc1)NC(=O)c1ccc(C(C)(C)C)cc1 (some centres undefined) ({Benzoyl(4-tBu)}-FAL[Lys(Me,2-norbornyl)]S-OMe)

IC50 [12]: 72.8 nM
Structure (SMILES): CC(=O)N[C@@H](CC(C)C)C(=O)N[C@@H](CCC(=O)O)C(=O)N[C@@H](Cc1cnc[nH]1)C(=O)N[C@@H](CC(=O)O)C(=O)CCl (Ac-LEHD-CH2Cl)

inhibition [20]: 73%
Structure (SMILES): CC(C)(C)OC(=O)NCCCCCN(CCc1ccccc1)C(=O)n1cc(-c2ccc(OC(F)(F)F)cc2)nn1

IC50 [24]: 5 nM
Structure (SMILES): CC[C@H](C)[C@H](NC(C)=O)C(=O)N[C@@H](CCC(=O)O)C(=O)N[C@H](C(=O)N[C@H](C=O)CC(=O)O)[C@@H](C)O (Ac-IETD-aldehyde)

— ChEMBL document CHEMBL5723035, “Affinity Biochemical Literature for EUbOPEN Chemogenomic Library” (2024)
